Series [1] in a line: Study HDP-CDV-112: mass balance and metabolite profiling of 14C-radiolabeled HDP-CDV. The settings on record: for metabolite AUC as share of total HDP-CDV-derived radioactivity AUC: plasma, through 24 h postdose. The protocol:
The criteria for stopping urine and stool collection were assessed independently of each other.

A further series has as its system HHV-6(B). Put plainly: In vitro antiviral activity in cell culture, HHV-6(B). Conditions: Human betaherpesvirus 6, B-cell. The series is classed as cell-based, human herpesvirus 6.
The subject of a further series is AdV. Nature of the series: In vitro antiviral activity in cell culture, AdV. The series is classed as cell-based. Conditions: unidentified adenovirus.
The nature of another series: clinical. The settings on record: human, in vivo. The protocol:
The pharmacokinetics of HDP-CDV (oral solution) were investigated in a dose-escalation study in healthy volunteers (Study HDP-CDV-102) in which single doses of up to 2 mg/kg and multiple doses (3 doses, each separated by 6 days) of up to 1 mg/kg were administered.

The structures appear in SMILES notation. pEC50: −log10 of the molar value.

`Nc1ccn(CC(CO)OCP(=O)(O)OCCCO)c(=O)n1` (stereo not drawn) [CMX103, 3-hydroxypropyl ester of CDV]: in series [1] (drug-derived metabolites), the “percent dose excreted in feces” value is listed as 6% and the “percent dose excreted in urine” value turned out to be 21%. The “metabolite AUC as share of total HDP-CDV-derived radioactivity AUC” value in series [1] is recorded as “approximately 32%”. For the same compound, the “in vitro pharmacological activity and cytotoxicity compared to HDP-CDV” value with ectromelia is “lower pharmacologic and cytotoxic activity”.
Usually pEC50 stands for the negative decadic logarithm of the EC50, by convention in mol/L. Read a low pEC50 as a large EC50. As to `Nc1nc(O)c2ncn(COC(CO)CO)c2n1` [Ganciclovir, ganciclovir], the pEC50 is 5.23 in the series on HHV-6(B) and 4.48 to 5.35 with AdV.
With `Nc1ccn(C[C@@H](CO)OCP(=O)(O)O)c(=O)n1` [Cidofovir, cidofovir, reference compound], the pEC50 is 5.27 with HHV-6(B) and 5.89 in the series with AdV. Also, the “Cmax and AUC versus dose” value in the series “clinical” is reported as “increased approximately in proportion to dose”. In “clinical”, the “accumulation on Day 12” value is on record as “negligible accumulation”. Moreover, in the series “clinical” (po), the “time of Cmax after administration” value was in the range of 9 to 15 h. For the same compound, the “in vitro pharmacological activity and cytotoxicity compared to HDP-CDV” value in the series on ectromelia was “lower pharmacologic and cytotoxic activity”.
Regarding `Nc1ccn(C[C@@H](CO)OCP(=O)(O)OCCCOCCCC(=O)O)c(=O)n1` [CMX064, 4-(3-propoxy)butanoic acid ester of CDV], the “percent dose excreted in urine” value in series [1] (drug-derived metabolites) was found to be 10%. Moreover, in series [1], the “metabolite AUC as share of total HDP-CDV-derived radioactivity AUC” value was around 23%. Also, in the series with ectromelia, the “in vitro pharmacological activity and cytotoxicity compared to HDP-CDV” value is “lower pharmacologic and cytotoxic activity”.

Source of the values: patent US20140303092A1 (CHIMERIX, INC., priority 2011, published 2014).
